Laboratory results published in patent publication US20040086999A1, “Mutated-pf-4, its fragments and mutated fusion peptides, their analogues, corresponding dna, cdna and mrna sequences and their use for inhibiting angiognesis” (priority 2000, published 2004).

Key:
[1] = system: FGF-2 high-affinity receptors; assay: Inhibition of binding of 125I-FGF-2 to high-affinity receptors on endothelial cells; details: 125I-FGF-2 10 ng/ml, 2 h at 4° C., read-out: I50, inhibition of the binding of FGF-2 to the high-affinity receptors
Description: (§1) The inhibition of the binding of FGF-2 to high-affinity receptors (Table 1) is measured in the following manner. FGF-2 is radiolabeled with ^125I-Na, and 10 ng/ml are incubated with endothelial cells for 2 h at 4° C. The radioactivity bound to high-affinity receptors is then determined. The specific binding is estimated by subtracting the nonspecific binding from the total binding (in the presence of a 100-fold excess of cold ligand relative to the hot ligand). The I50 is the concentration which inhibits specific binding by 50%.
(§2) A more detailed description of these measurements of I50 may be found in Jouan et al. and in Perollet et al. cited above.

[2] = system: VEGF receptors; assay: Inhibition of binding of 125I-VEGF to surface receptors on endothelial cells; details: 125I-VEGF 10 ng/ml, 2 h at 4° C., read-out: I50, inhibition of the binding of VEGF to the high-affinity receptors
Description: The inhibition of the binding of VEGF to the surface receptors (Table 1) is measured in the following manner. VEGF is radiolabeled with ^125I-Na, and 10 ng/ml are incubated with endothelial cells for 2 h at 4° C. The radioactivity bound to the receptors is then determined. The specific binding is estimated by subtracting the nonspecific binding from the total binding (in the presence of a 100-fold excess of cold ligand relative to the hot ligand). The I50 is the concentration which inhibits specific binding by 50%.
as §2

[3] = system: proteoglycans; assay: Inhibition of binding of 125I-FGF-2 to proteoglycans on endothelial cells; details: 125I-FGF-2 10 ng/ml, 2 h at 4° C., read-out: I50, inhibition of the binding of FGF-2 to proteoglycans
Description: as §1, with “to the proteoglycans” for “to high-affinity receptors”, “(Table 2)” for “(Table 1)”, “cold […]” for “cold ligand”
as §2

[4] = system: proliferation induced by FGF-2; assay: Inhibition of the biological activity of FGF-2 (FGF-2-induced cell proliferation, cell count); format: cell-based; details: 20 000 cells, 10 ng/ml FGF-2, DMEM 1% FCS, counted on day 6; read-out: I50, inhibition of cell proliferation
Description: The inhibition of the biological activity of FGF-2 (Table 3) is measured in the following manner: 20 000 cells are incubated with 10 ng/ml of FGF-2 in DMEM medium containing 1% fetal calf serum (FCS) in dishes 3.5 cm in diameter in the presence or in the absence of peptide. The cells are counted on the 6 day using a Coulter counter. The experiments are carried out in duplicate. The I50 is the concentration which inhibits the proliferation induced by FGF-2 by 50%.
as §2

[5] = system: angiogenesis; assay: Inhibitory activity tests of the fusion peptide (method not described); details: test not specified

Substance | IC50 [1] [µM] | IC50 [2] [µM] | IC50 [3] [µM] | IC50 [4] [µM] | Inhibitory activity compared with native PF-4 or fragment 47-70 [5]
Peptide 47-70 DLR: PF-4 fragment 47-70 with glutamine in position 56 replaced by arginine (SEQ. ID. No:3) (NGRKICLDLRAPLYKKIIKKLLES; SEQ ID NO. 3 is the 47-70 fragment of mutated PF-4 SEQ ID. NO. 2) | 0.3 | 0.3 | 0.6 | 0.4 | 
Peptide 47-70 DLQ: nonmutated PF-4 fragment 47-70, control peptide used as comparative example (NGRKICLDLQAPLYKKIIKKLLES; Platelet factor 4; UniProt P02776 78-101, looked up, fragment) [reference compound] | 1.5 | 1.5 | 3.5 | 2.8 | 
fusion peptide 17-34/47-70: fusion peptide 17-34/47-70 derived from PF-4; the mutated form is SEQ. ID. No:4 (SQVRPRHITSLEVIKAGPNGRKICLDLRAPLYKKIIKKLLES; SEQ ID NO. 4 is the 17-34/47-70 fragment of mutated PF-4 SEQ. ID NO. 2.) [fusion peptide 17-34/47-70 derived from PF-4; ID; No:4] |  |  |  |  | inhibitory activity greater than that of native PF-4 or of fragment 47-70
